Starred links: 1 amine or outer side, 2 acyl side, 3 side chain; linkers in the order of their positions; H or OH if unused. Positions of bridges follow the written chain, without caps; N, C: chain ends. Non-standard residues stand in square brackets, D forms with d. Residues, ends and D or L forms follow the SMILES beside them. ξ: configuration not given here. *: point of attachment. Phe(3-CH2NH2) = O=C([C@H](Cc1cccc(CN[*:3])c1)N[*:1])[*:2]; Trp(βS-Me) = C[C@@H](c1c[nH]c2ccccc12)[C@H](N)C(=O)O; 2Furoyl(5-aminomethyl) = O=C(c1ccc(CN[*:1])o1)[*:2]; NHCH2C6H4(p)CH2CH2NH = c1cc(CN[*:1])ccc1CCN[*:2]; Ala(imidazol-2-yl) = N[C@@H](Cc1ncc[nH]1)C(=O)O; Phe(4-COOH) = N[C@@H](Cc1ccc(C(=O)O)cc1)C(=O)O; Trp(5-F) = N[C@@H](Cc1c[nH]c2ccc(F)cc12)C(=O)O; Trp(6-F) = N[C@@H](Cc1c[nH]c2cc(F)ccc12)C(=O)O; X55 = O=C(CCCCCC(=O)[*:1])NCc1ccc(CCN[*:2])cc1; Phac(3-amino) = O=C(Cc1cccc(N[*:1])c1)[*:2]; Phe(4-CH2NH2) = NCc1ccc(C[C@H](N)C(=O)O)cc1; dPro(cis-4-NH2) = N[C@H]1CN[C@@H](C(=O)O)C1; X3 = O=C(CCSCc1cc(F)cc(CSCCN[*:1])c1)[*:2]; X33 = CC(C)C(N[*:1])c1ncc(C(=O)[*:2])[nH]1; Pro(cis-4-F) = O=C(O)[C@@H]1C[C@H](F)CN1; X4 = O=C(CCSCc1cccc(CSCCN[*:1])c1)[*:2]; X64 = C[C@H](N[*:1])c1ncc(C(=O)[*:2])s1; mXylylene = c1cc(C[*:1])cc(C[*:2])c1; AEF = NCCOc1ccc(C[C@H](N)C(=O)O)cc1; Hyp = O=C(O)[C@@H]1C[C@@H](O)CN1; ξAla(CF3) = NC(CC(F)(F)F)C(=O)O; Aad = N[C@@H](CCCC(=O)O)C(=O)O; αMeP = C[C@@]1(C(=O)O)CCCN1; Isovaleryl = CC(C)CC(=O)*; Dap = NC[C@H](N)C(=O)O; X2 = O=C(C[*:2])[*:1]; Ahx = NCCCCCC(=O)O; Ava = NCCCCC(=O)O; Mpa = O=C(O)CCS
Target: PCSK9 (Homo sapiens (Human), UniProt Q8NBP7)
Assay: PCSK9 Alexa FRET Standard assay (displacement of AlexaFluor647 tagged cyclic peptide Reagent A)
Type: binding
Details: PCSK9 Alexa FRET Standard assay, 0.5 nM PCSK9, 20 nM AF cyclic peptide Reagent A; read-out: IC50
Experimental: A solution containing 1 nM biotinylated PCSK9+2.5 nM Lance Streptavidin Europium (Strep-Eu) was made in 50 mM HEPES pH 7.4, 0.15 M NaCl, 5 mM CaCl2), 0.01% BSA, and 0.01% Surfactant P20. A separate solution containing 40 nM of the AlexaFluor tagged cyclic peptide was made in the same buffer system. An Echo was used to transfer 0.750 ul of compound to an assay plate followed by the addition of 15 ul of PCSK9+Stept-Eu and 15 ul of AF peptide. The final assay volume was 30.750 ul containing 0.5 nM PCSK9, 1.25 nM Strep-Eu, and 20 nM AF cyclic peptide. The reaction was incubated at room temperature for at least two hours prior to fluorescence measurements using an Envision Multilabel Reader. IC50 values were determined by fitting data to a sigmoidal dose-response curve using nonlinear regression. Ki was then calculated from the IC50 and the KD of AF cyclic peptide. Counts (B-counts) of the europium-labeled PCSK9 were followed to observe if compounds were […]. A fall off of the B-counts likely indicated a false positive of inhibition. Data from this procedure was reported as “A=‘numerical value’ (nanomolar)”

PCSK9, sequence (Q8NBP7 153-692): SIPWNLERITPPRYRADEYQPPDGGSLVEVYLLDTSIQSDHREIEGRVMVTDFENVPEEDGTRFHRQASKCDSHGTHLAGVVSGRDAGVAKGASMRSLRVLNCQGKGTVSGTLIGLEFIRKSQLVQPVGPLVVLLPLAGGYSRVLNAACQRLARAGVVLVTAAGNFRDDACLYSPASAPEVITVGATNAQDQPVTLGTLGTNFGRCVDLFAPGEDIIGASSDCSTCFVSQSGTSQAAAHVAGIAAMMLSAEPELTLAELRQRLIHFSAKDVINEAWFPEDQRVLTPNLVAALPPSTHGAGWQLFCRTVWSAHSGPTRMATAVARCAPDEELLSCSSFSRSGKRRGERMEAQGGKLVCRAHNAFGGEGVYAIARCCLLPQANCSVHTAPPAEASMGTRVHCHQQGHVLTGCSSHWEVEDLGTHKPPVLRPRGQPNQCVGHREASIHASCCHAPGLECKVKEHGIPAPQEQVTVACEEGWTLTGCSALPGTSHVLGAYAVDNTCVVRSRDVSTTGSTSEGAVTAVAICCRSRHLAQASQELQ

IC50 [nM] | SMILES
21000 to 50000 | COc1ccc(C[C@@H]2NC(=O)[C@H](Cc3cnc[nH]3)NC(=O)[C@H](CC(=O)O)NC(=O)[C@H](Cc3c[nH]c4ccc(F)cc34)NC(=O)[C@H](Cc3c[nH]c4ccc(F)cc34)NC(=O)[C@@H](C)NC(=O)Cc3cccc(c3)NC(=O)C[C@@H](C(=O)O)NC(=O)[C@]3(C)CCCN3C2=O)cc1 [Compound 413] ([Phac(3-amino)][dA][Trp(5-F)][Trp(5-F)]DHY(Me)[αMeP]D-OH; lactam N-9)
21000 to 50000 | COc1ccc(C[C@@H]2NC(=O)[C@H](Cc3ncc[nH]3)NC(=O)[C@H](CC(=O)O)NC(=O)[C@H](Cc3c[nH]c4ccc(F)cc34)NC(=O)[C@H](Cc3c[nH]c4ccc(F)cc34)NC(=O)[C@@H](C)NC(=O)[C@H](C)NC(=O)CCSCc3cccc(c3)CSCCNC(=O)[C@]3(C)CCCN3C2=O)cc1 [Compound 407] (cyclo(A[dA][Trp(5-F)][Trp(5-F)]D[Ala(imidazol-2-yl)]Y(Me)[αMeP][X4]))
0.11 to 100 | CC(=O)N[C@H]1CCCC/C=C/CO[C@H]2C[C@@H](C(N)=O)N(C2)C(=O)[C@H](Cc2ccc(O)cc2)NC(=O)[C@H](Cc2cnc[nH]2)NC(=O)[C@H](CC(=O)O)NC(=O)[C@H](Cc2c[nH]c3ccc(F)cc23)NC(=O)[C@H](Cc2c[nH]c3ccc(F)cc23)NC(=O)CNC(=O)[C@H](CCCCN)NC1=O [Compound 431]
21000 to 50000 | COc1ccc(C[C@@H]2NC(=O)[C@H](Cc3cnc[nH]3)NC(=O)[C@H](CC(=O)O)NC(=O)[C@H](Cc3c[nH]c4ccc(F)cc34)NC(=O)[C@H](Cc3c[nH]c4ccc(F)cc34)NC(=O)[C@@H](C)NC(=O)[C@H](CCCCN)NC(=O)[C@@H](NC(C)=O)CC(=O)NCc3ccc(cc3)C[C@@H](C(N)=O)NC(=O)[C@]3(C)CCCN3C2=O)cc1 [Compound 348] (Ac-DK[dA][Trp(5-F)][Trp(5-F)]DHY(Me)[αMeP][Phe(4-CH2NH2)]-NH2; lactam 1-10)
1000 to 12100 | COc1ccc(C[C@@H]2NC(=O)[C@H]([C@@H](C)O)NC(=O)[C@@H]3C[C@H](F)CN3C(=O)[C@H](Cc3c[nH]c4ccc(F)cc34)NC(=O)[C@H](Cc3c[nH]c4ccc(F)cc34)NC(=O)[C@@H](C)NC(=O)[C@H](CCCCN)NC(=O)[C@@H](NC(C)=O)CC(=O)NCc3ccccc3C[C@@H](C(N)=O)NC(=O)[C@]3(C)CCCN3C2=O)cc1 [Compound 079]
100 to 1000 | COc1ccc(C[C@@H]2NC(=O)[C@H]([C@@H](C)O)NC(=O)[C@@H]3C[C@H](F)CN3C(=O)[C@H](Cc3c[nH]c4ccc(F)cc34)NC(=O)[C@H](Cc3c[nH]c4ccc(F)cc34)NC(=O)[C@@H](C)NC(=O)[C@H](CCCCN)NC(=O)[C@@H](NC(=O)CC(C)C)CC(=O)NCCOc3ccc(cc3)C[C@@H](C(N)=O)NC(=O)[C@]3(C)CCCN3C2=O)cc1 [Compound 107] (Isovaleryl-DK[dA][Trp(5-F)][Trp(5-F)][Pro(cis-4-F)]TY(Me)[αMeP][AEF]-NH2; lactam 1-10)
21000 to 50000 | CC(=O)N[C@H]1CNC(=O)COc2ccc(cc2)C[C@@H](C(N)=O)NC(=O)[C@]2(C)CCCN2C(=O)[C@H](Cc2ccc(O)cc2)NC(=O)[C@H](Cc2cnc[nH]2)NC(=O)[C@H](CC(=O)O)NC(=O)[C@H](Cc2c[nH]c3ccc(F)cc23)NC(=O)[C@H](Cc2c[nH]c3ccc(F)cc23)NC(=O)CNC(=O)[C@H](C)NC1=O [Compound 351] (Ac-[Dap]AG[Trp(5-F)][Trp(5-F)]DHY[αMeP]Y-NH2; linker 1-10 via X2)
100 to 1000 | CC(C)C1NC(=O)CCSCc2cccc(c2)CSC[C@@H](C(N)=O)NC(=O)[C@]2(C)CCCN2C(=O)[C@H](Cc2ccc(O)cc2)NC(=O)[C@H](Cc2c[nH]cn2)NC(=O)[C@H](CC(=O)O)NC(=O)[C@H](Cc2c[nH]c3ccc(F)cc23)NC(=O)[C@H](Cc2c[nH]c3ccc(F)cc23)NC(=O)c2cnc1[nH]2 (stereo partly shown) [Compound 449] ([Mpa][X33][Trp(5-F)][Trp(5-F)]DHY[αMeP]C-NH2; linker 1-9 via mXylylene)
21000 to 50000 | COc1ccc(C[C@@H]2NC(=O)[C@H](Cc3ncc[nH]3)NC(=O)[C@H](CC(=O)O)NC(=O)[C@H](Cc3c[nH]c4ccc(F)cc34)NC(=O)[C@H](Cc3c[nH]c4ccc(F)cc34)NC(=O)[C@@H](C)NC(=O)C(CC(F)(F)F)NC(=O)CCSCc3cccc(c3)CSCCNC(=O)[C@]3(C)CCCN3C2=O)cc1 (stereo partly shown) [Compound 443] (cyclo(D[Ala(imidazol-2-yl)]Y(Me)[αMeP][X4][ξAla(CF3)][dA][Trp(5-F)][Trp(5-F)]))
21000 to 50000 | C[C@@]12CCCN1C(=O)[C@H](Cc1ccc(O)cc1)NC(=O)[C@H](Cc1cnc[nH]1)NC(=O)[C@H](CC(=O)O)NC(=O)[C@H](Cc1c[nH]c3ccc(F)cc13)NC(=O)[C@H](Cc1c[nH]c3ccc(F)cc13)NC(=O)C1=CC=C(CNC(=O)CCSCc3cccc(c3)CSC[C@@H](C(N)=O)NC2=O)O1 [Compound 428] ([Mpa][2Furoyl(5-aminomethyl)][Trp(5-F)][Trp(5-F)]DHY[αMeP]C-NH2; linker 1-9 via mXylylene)
0.11 to 100 | C[C@@H]1NC(=O)[C@H](Cc2c[nH]c3ccc(F)cc23)NC(=O)[C@H](Cc2c[nH]c3ccc(F)cc23)NC(=O)[C@@H](C)NC(=O)[C@H](CCCCN)NC(=O)CCSCc2cccc(c2)CSC[C@@H](C(N)=O)NC(=O)[C@]2(C)CCCN2C(=O)[C@H](Cc2ccc(O)cc2)NC(=O)C2=CN=C1S2 [Compound 460] ([Mpa]K[dA][Trp(5-F)][Trp(5-F)][X64]Y[αMeP]C-NH2; linker 1-9 via mXylylene)
1000 to 12100 | C[C@@H](c1c[nH]c2ccccc12)[C@@H]1NC(=O)CNC(=O)[C@H](CCCCN)NC(=O)CCSCc2cccc(c2)CSC[C@@H](C(N)=O)NC(=O)[C@]2(C)CCCN2C(=O)[C@H](Cc2ccc(O)cc2)NC(=O)[C@H](Cc2cnc[nH]2)NC(=O)[C@H](CC(=O)O)NC(=O)[C@H](Cc2c[nH]c3ccc(F)cc23)NC1=O [Compound 430] ([Mpa]KG[Trp(βS-Me)][Trp(5-F)]DHY[αMeP]C-NH2; linker 1-10 via mXylylene)
21000 to 50000 | COc1ccc(C[C@@H]2NC(=O)[C@H]([C@@H](C)O)NC(=O)[C@@H]3C[C@H](F)CN3C(=O)[C@H](Cc3c[nH]c4ccc(F)cc34)NC(=O)[C@H](Cc3c[nH]c4ccc(F)cc34)NC(=O)[C@@H](C)NC(=O)[C@H](CCCCN)NC(=O)[C@@H](NC(C)=O)CC(=O)NCc3cccc(c3)C[C@@H](C(N)=O)NC(=O)[C@]3(C)CCCN3C2=O)cc1 [Compound 077] (Ac-DK[dA][Trp(5-F)][Trp(5-F)][Pro(cis-4-F)]TY(Me)[αMeP][Phe(3-CH2NH2)]-NH2; lactam 1-10)

SMILES | IC50 [nM]
COc1ccc(C[C@@H]2NC(=O)[C@H](Cc3cnc[nH]3)NC(=O)[C@H](CC(=O)O)NC(=O)[C@H](Cc3c[nH]c4ccc(F)cc34)NC(=O)[C@H](Cc3c[nH]c4ccc(F)cc34)NC(=O)[C@H](C)NC(=O)CCCCCC(=O)NCc3ccc(cc3)CCNC(=O)[C@]3(C)CCCN3C2=O)cc1 [Compound 470] (A[Trp(5-F)][Trp(5-F)]DHY(Me)[αMeP]; linker N-C via X55) | 0.11 to 100
COc1ccc(C[C@@H]2NC(=O)[C@H]([C@@H](C)O)NC(=O)[C@@H]3C[C@H](F)CN3C(=O)[C@H](Cc3c[nH]c4ccc(F)cc34)NC(=O)[C@H](Cc3c[nH]c4ccc(F)cc34)NC(=O)[C@@H](C)NC(=O)CCCCNC(=O)c3ccc(cc3)C[C@@H](C(N)=O)NC(=O)[C@]3(C)CCCN3C2=O)cc1 [Compound 076] ([Ava][dA][Trp(5-F)][Trp(5-F)][Pro(cis-4-F)]TY(Me)[αMeP][Phe(4-COOH)]-NH2; lactam N-9) | 100 to 1000
COc1ccc(C[C@@H]2NC(=O)[C@@H]([C@H](C)O)NC(=O)[C@@H]3C[C@@H](O)CN3C(=O)[C@H](Cc3c[nH]c4ccc(F)cc34)NC(=O)[C@H](Cc3c[nH]c4ccc(F)cc34)NC(=O)[C@@H](C)NC(=O)[C@H](CCCCN)NC(=O)CCSCc3cccc(c3)CSCCNC(=O)[C@]3(C)CCCN3C2=O)cc1 [Compound 084] (cyclo([Hyp][dT]Y(Me)[αMeP][X4]K[dA][Trp(5-F)][Trp(5-F)])) | 100 to 1000
COc1ccc(C[C@@H]2NC(=O)[C@H]([C@@H](C)O)NC(=O)[C@@H]3C[C@H](F)CN3C(=O)[C@H](Cc3c[nH]c4ccc(F)cc34)NC(=O)[C@H](Cc3c[nH]c4ccc(F)cc34)NC(=O)[C@@H](C)NC(=O)[C@H](CCCCN)NC(=O)[C@@H](NC(C)=O)CCCC(=O)NCc3ccc(cc3)CCNC(=O)[C@]3(C)CCCN3C2=O)cc1 [Compound 096] (Ac-[Aad]K[dA][Trp(5-F)][Trp(5-F)][Pro(cis-4-F)]TY(Me)[αMeP]; linker 1-C via NHCH2C6H4(p)CH2CH2NH) | 100 to 1000
COc1ccc(C[C@@H]2NC(=O)[C@@H]([C@H](C)O)NC(=O)[C@H]3C[C@@H](N)CN3C(=O)[C@H](Cc3c[nH]c4ccc(F)cc34)NC(=O)[C@H](Cc3c[nH]c4ccc(F)cc34)NC(=O)[C@@H](C)NC(=O)[C@H](CCCCN)NC(=O)CCSCc3cc(F)cc(c3)CSCCNC(=O)[C@]3(C)CCCN3C2=O)cc1 [Compound 082] (cyclo(K[dA][Trp(5-F)][Trp(5-F)][dPro(cis-4-NH2)][dT]Y(Me)[αMeP][X3])) | 100 to 1000
COc1ccc(C[C@@H]2NC(=O)[C@H](Cc3cnc[nH]3)NC(=O)[C@H](CC(=O)O)NC(=O)[C@H](Cc3c[nH]c4cc(F)ccc34)NC(=O)[C@H](Cc3c[nH]c4ccc(F)cc34)NC(=O)[C@@H](C)NC(=O)CCCCCNC(=O)c3ccc(cc3)C[C@@H](C(N)=O)NC(=O)[C@]3(C)CCCN3C2=O)cc1 [Compound 350] ([Ahx][dA][Trp(5-F)][Trp(6-F)]DHY(Me)[αMeP][Phe(4-COOH)]-NH2; lactam N-9) | 21000 to 50000
